Source: paper PMC6301713, “Zincophorin – biosynthesis in Streptomyces griseus and antibiotic properties” (GMS Infectious Diseases, 2016)
Values after ≈ are worked out from the molar mass of the structure shown. Like-named read-outs stand apart in the source and are kept apart here.

Experiments:
[1] = Cytotoxicity assay, crystal violet staining; format: cell-based, canine; conditions: dog
Method: (§1) The cytotoxicity of zincophorin, methyl zincophorin, daptomycin (Chemos GmbH, Regenstauf, Germany), and imipenem (Sigma-Aldrich GmbH, Taufkirchen, Germany) was evaluated as described recently, [20]. Briefly, serial twofold compounds concentration were prepared in Eagle’s minimum essential medium supplemented with 2 mM L-glutamine or Dulbecco’s Modified Eagle Medium (Lonza Group Ltd., Basel, Switzerland) and added to three-day-old confluent human lung carcinoma cells (A549; Institute of Molecular Virology, University of Münster, Germany) and Madin-Darby canine kidney cell (MDCK; Friedrich-Loeffler Institute, Riems, Germany) monolayers grown in 96-well plates (Greiner bio-one GmbH, Frickenhausen, Germany), respectively. […] After dye elution and optical density measurement the 50% cytotoxic concentration (CC50) was calculated.

[2] = Cytotoxicity assay, crystal violet staining; format: cell-based, human; conditions: human
Method: as §1

S. pneumoniae DSM20566 [3] = conditions: DSM20566, 18 h
S. pneumoniae DSM14378 [4] = conditions: DSM14378, 18 h
S. pneumoniae D39 [5] = conditions: D39, 18 h
[6] = system: S. pneumoniae clinical isolate 6937; conditions: clinical isolate 6937, 18 h
[7] = system: S. pneumoniae clinical isolate 9400; conditions: clinical isolate 9400, 18 h
[8] = system: S. pneumoniae clinical isolate 8919; conditions: clinical isolate 8919, 18 h
[9] = system: S. pneumoniae clinical isolate 8828; conditions: clinical isolate 8828, 18 h
S. pneumoniae DSM20566 [10] = system: S. pneumoniae DSM20566
S. pneumoniae DSM14378 [11] = system: S. pneumoniae DSM14378
S. pneumoniae D39 [12] = system: S. pneumoniae D39
[13] = system: S. pneumoniae clinical isolate 6937
[14] = system: S. pneumoniae clinical isolate 9400
[15] = system: S. pneumoniae clinical isolate 8919
[16] = system: S. pneumoniae clinical isolate 8828
S. pneumoniae DSM20566 [17] = test: microbe, parasite or virus in culture; conditions: Streptococcus pneumoniae, DSM20566, 18 h, read-out: MIC (DSM20566)
S. pneumoniae DSM14378 [18] = test: microbe, parasite or virus in culture; conditions: Streptococcus pneumoniae, DSM14378, 18 h, read-out: MIC (DSM14378)
S. pneumoniae D39 [19] = test: microbe, parasite or virus in culture; conditions: Streptococcus pneumoniae, D39, 18 h, read-out: MIC (D39)
[20] = system: S. pneumoniae clinical isolate 6937; test: microbe, parasite or virus in culture; conditions: Streptococcus pneumoniae, 18 h, read-out: MIC (6937)
[21] = system: S. pneumoniae clinical isolate 9400; test: microbe, parasite or virus in culture; conditions: Streptococcus pneumoniae, 18 h, read-out: MIC (9400)
[22] = system: S. pneumoniae clinical isolate 8919; test: microbe, parasite or virus in culture; conditions: Streptococcus pneumoniae, 18 h, read-out: MIC (8919)
[23] = system: S. pneumoniae clinical isolate 8828; test: microbe, parasite or virus in culture; conditions: Streptococcus pneumoniae, 18 h, read-out: MIC (8828)
Streptococcus pneumoniae = test: Antimicrobial assays, all tested S. pneumoniae strains; conditions: pneumococci; maximum tested concentration 50 µM; data not shown
[24] = system: Madin-Darby canine kidney cell (MDCK); test: Cytotoxicity assay, crystal violet staining; format: cell-based; conditions: MDCK cells
Method: as §1

[25] = system: human lung carcinoma cells (A549); test: Cytotoxicity assay, crystal violet staining; format: cell-based; conditions: A549 cells
Method: as §1

[26] = system: Clostridium welchii (Clostridium perfringens); conditions: cited from earlier work
[27] = A549 lung carcinoma cells (confluent monolayers), A549 cells, 72 h, maximum tested 100 µM, mean with standard deviation, read-out: 50% cytotoxic concentration (CC50), A549
[28] = reference strain DSM20566, biofilm formation inhibited ≥90%, 24 h, TSB, mean with standard deviation
[29] = reference strain DSM14378, biofilm formation inhibited ≥90%, 24 h, TSB, mean with standard deviation
[30] = reference strain D39, biofilm formation inhibited ≥90%, 24 h, TSB, mean with standard deviation
[31] = clinical isolate 6937, biofilm formation inhibited ≥90%, 24 h, TSB, mean with standard deviation
[32] = clinical isolate 9400, biofilm formation inhibited ≥90%, 24 h, TSB, mean with standard deviation
[33] = MDCK cells (confluent monolayers), MDCK cells, 72 h, maximum tested 100 µM, mean with standard deviation, read-out: 50% cytotoxic concentration (CC50), MDCK

Row | SMILES | CC50 at 72 h [2, 27] | MBIC (DSM20566) (S. pneumoniae DSM20566 [10]; [28]) | MBIC (DSM14378) (S. pneumoniae DSM14378 [11]; [29]) | MBIC (D39) (S. pneumoniae D39 [12]; [30]) | MBIC (6937) [13, 31] | MBIC (9400) [14, 32] | MIC (S. pneumoniae DSM20566 [17]) | MIC (S. pneumoniae DSM14378 [18]) | MIC (S. pneumoniae D39 [19]) | MIC [20] | MIC [21] | MIC [22] | MIC [23] | CC50 at 72 h [1, 33] | further results
1 | CCCCCCCCCC(=O)N[C@@H](Cc1c[nH]c2ccccc12)C(=O)N[C@H](CC(N)=O)C(=O)N[C@@H](CC(=O)O)C(=O)N[C@@H]1C(=O)NCC(=O)N[C@@H](CCCN)C(=O)N[C@@H](CC(=O)O)C(=O)N[C@H](C)C(=O)N[C@@H](CC(=O)O)C(=O)NCC(=O)N[C@H](CO)C(=O)N[C@@H]([C@H](C)CC(=O)O)C(=O)N[C@@H](CC(=O)c2ccccc2N)C(=O)O[C@@H]1C [daptomycin] |  |  |  |  |  |  |  |  |  |  |  |  |  |  | CC50 at 72 h [1]: > 100 µM; CC50 at 72 h [2]: > 100 µM; MIC (DSM20566) (S. pneumoniae DSM20566 [3]): 1.94 ± 0.91 µM (≈ 3.14 µg/mL); MIC (DSM14378) (S. pneumoniae DSM14378 [4]): 0.54 ± 0.18 µM (≈ 0.875 µg/mL); MIC (D39) (S. pneumoniae D39 [5]): 2.80 ± 0.11 µM (≈ 4.54 µg/mL); MIC (6937) [6]: 0.48 ± 0.18 µM (≈ 0.778 µg/mL); MIC (9400) [7]: 0.96 ± 0.56 µM (≈ 1.56 µg/mL); MIC (8919) [8]: 0.31 ± 0.08 µM (≈ 0.502 µg/mL); MIC (8828) [9]: 0.86 ± 0.50 µM (≈ 1.39 µg/mL); MBIC (DSM20566) (S. pneumoniae DSM20566 [10]; DSM20566, 24 h): 1.92 ± 1.07 µM; MBIC (DSM14378) (S. pneumoniae DSM14378 [11]; DSM14378, 24 h): 1.99 ± 1.38 µM; MBIC (D39) (S. pneumoniae D39 [12]; D39, 24 h): 6.10 ± 0.79 µM; MBIC (6937) ([13]; clinical isolate 6937, 24 h): 1.66 ± 1.21 µM; MBIC (9400) ([14]; clinical isolate 9400, 24 h): 2.28 ± 1.81 µM; MBIC (8919) ([15]; clinical isolate 8919, 24 h): 0.49 ± 0.26 µM; MBIC (8828) ([16]; clinical isolate 8828, 24 h): 0.48 ± 0.21 µM
2 | C[C@@H](O)[C@H]1C(=O)N2C(C(=O)O)=C(SCCN=CN)C[C@H]12 [imipenem] | > 100 µM | 0.06 ± 0.03 µM | 0.19 ± 0.01 µM | 0.07 ± 0.03 µM | 0.22 ± 0.14 µM | 0.36 ± 0.02 µM | 0.03 ± 0.01 µM (≈ 0.00898 µg/mL) | 0.02 ± 0.01 µM (≈ 0.00599 µg/mL) | 0.02 µM (≈ 0.00599 µg/mL) | 0.01 µM (≈ 0.00299 µg/mL) | 0.01 ± 0.01 µM (≈ 0.00299 µg/mL) | 0.49 ± 0.17 µM (≈ 0.147 µg/mL) | 0.02 µM (≈ 0.00599 µg/mL) |  | 
3 | CCC[C@@H](C)/C=C(\C)[C@H](O)[C@H](C)/C=C/CC[C@@H](O)[C@H](C)[C@H](O)[C@H](C)[C@H](O)[C@H](C)[C@H]1O[C@H]([C@H](C)C(=O)OC)CC[C@@H]1C [zincophorin methyl ester] | > 100 µM |  |  |  |  |  |  |  |  |  |  |  |  | > 100 µM | antibacterial effect (highest concentration without effect) (Streptococcus pneumoniae): > 50 µM
4 | CCCC(C)C=C(C)C(O)C(C)C=CCCC(O)C(C)C(O)C(C)C(O)C(C)C1OC(C(C)C(=O)O)CCC1C (stereo not drawn) [zincophorin] | 1.02 ± 0.63 µM | 0.17 ± 0.03 µM | 0.13 ± 0.06 µM | 0.40 ± 0.24 µM | 0.46 ± 0.25 µM | 0.36 ± 0.01 µM | 0.18 ± 0.02 µM (≈ 0.102 µg/mL) | 0.1 ± 0.05 µM (≈ 0.0569 µg/mL) | 0.21 ± 0.11 µM (≈ 0.119 µg/mL) | 0.18 µM (≈ 0.102 µg/mL) | 0.14 ± 0.07 µM (≈ 0.0796 µg/mL) | 0.09 ± 0.01 µM (≈ 0.0512 µg/mL) | 0.22 ± 0.04 µM (≈ 0.125 µg/mL) | 0.63 ± 0.27 µM | cytotoxic effects in words, MDCK [24]: strong cytotoxic effects; cytotoxic effects in words, A549 [25]: strong cytotoxic effects; MBIC (8919) ([15]; clinical isolate 8919, biofilm formation inhibited ≥90%, 24 h, TSB, mean with standard deviation): 0.15 ± 0.01 µM; MBIC (8828) ([16]; clinical isolate 8828, biofilm formation inhibited ≥90%, 24 h, TSB, mean with standard deviation): 0.28 ± 0.06 µM; activity against Clostridium welchii [26]: particularly active
